# Reference: US20250102527A1, “METHOD AND DEVICE FOR DETERMINING THE VITAMIN STATUS” (TECHNISCHE UNIVERSITÄT MÜNCHEN, priority 2022, published 2025)
# Entries after “also recorded” stand apart in the source; their conditions may differ.
# Key:
# [1] = target: T1, recombinant human PLP binding protein (PLPBP, UniProt 094903) (Homo sapiens, UniProt O94903); experiment: Gel-based labeling of recombinant PLPBP with PLxP probes (fluorescence SDS-PAGE); conditions: for labeling of recombinant PLPBP by PLP cofactor mimic: 1 μM PLPBP, 100 μM probe, 1 h r.t., NaBH4 reduction, click to Cy5, fluorescence SDS-Page
# T1 construct: made in house; host or cells: E. coli Rosetta2 (DE3)
# Experimental: Conditions: 1 μM PLPBP, 100 μM probe (incubation 1 h, r.t.), reduction (NaBH4), precipitation (Aceton), wash (MeOH), redissolve in PBS+0.2% SDS, click to Cy5. Analysis via fluorescence SDS-Page.
# Structures of the different PLP probes PL1P, PL2P and PL13P (top) that were tested for their labeling efficiency of recombinant PLP binding protein (PLPBP), separately and all three in combination on a fluorescent SDS gel (bottom). The denaturation of PLPBP via increased temperature (heat control, h.c.) prior to labeling with the combination of probes served as negative control. FM=fluorescent marker.
# In brief, PLPBP (1 μM in PBS, total volume: 50 μL) was labeled with PLxP probe or mixture of PLxP probes (PL1P, PL2P, PL13P, final conc. 100 μM) at room temperature for 30 min. Upon reduction with […] NaBH4 (1 μl of 250 mM prepared fresh in 0.1 M NaOH) at room temperature for 30 min, proteins were precipitated by adding ice-cold acetone (4× volume) and incubating at −20° C. for at least 1 h. Precipitated proteins were pelletized by centrifugation (18,000×g, 15 min, 4° C.) and washed two times with ice-cold MeOH. For washing, protein pellet is resuspended in 0.2 mL cold methanol (−80° C.) by mild sonication (10 s, 10% intensity) and centrifuged (10 000 rpm, 10 min, 4° C.). Pelletized proteins were resuspended in 50 μl PBS containing […] SDS and Click chemistry was performed by adding 100 μM Cy5 azide (1 μL of 5 mM in DMSO), 100 μM TBTA (3 μL of 1.67 mM in/BuOH/DMSO 80:20), 1 mM TCEP (0.5 μL of 15 mg/mL stock in ddH2O) and 1 mM CuSO4 (1 μL of 50 mM stock in ddH2O) to each sample and incubated for at least 1 h at r.t. Samples were quenched with 2× Lämmli buffer and analysed by SDS-PAGE (12.5% polyacrylamide gels) with subsequent fluorescence scanning.
# For this, we selected recombinant human PLP binding protein (PLPBP, UniProt 094903) as a medium abundant model PLP-DE of human erythrocytes.
# Conditions: 1 μM PLPBP, 100 μM probe (incubation 1 h, r.t.), reduction (NaBH4), precipitation (aceton), wash (MeOH), redissolve in PBS+0.2% SDS, click to Cy5. Analysis via fluorescence SDS-Page. Results see FIG. 6.
# [2] = target: T2, recombinant SHMT1 (Homo sapiens, UniProt P34896); experiment: Microarray readout of PL2P probe signal on recombinant SHMT1 preincubated with PLP; type: binding; conditions: apoSHMT1 preincubated with 0.5-4.0 eq PLP, fixed with NaBH4, 100 μM PL2P, click to rhodamine azide
# T2 construct: made in house; host or cells: E. coli Rosetta2 (DE3)
# T2 sequence (P34896 1-483): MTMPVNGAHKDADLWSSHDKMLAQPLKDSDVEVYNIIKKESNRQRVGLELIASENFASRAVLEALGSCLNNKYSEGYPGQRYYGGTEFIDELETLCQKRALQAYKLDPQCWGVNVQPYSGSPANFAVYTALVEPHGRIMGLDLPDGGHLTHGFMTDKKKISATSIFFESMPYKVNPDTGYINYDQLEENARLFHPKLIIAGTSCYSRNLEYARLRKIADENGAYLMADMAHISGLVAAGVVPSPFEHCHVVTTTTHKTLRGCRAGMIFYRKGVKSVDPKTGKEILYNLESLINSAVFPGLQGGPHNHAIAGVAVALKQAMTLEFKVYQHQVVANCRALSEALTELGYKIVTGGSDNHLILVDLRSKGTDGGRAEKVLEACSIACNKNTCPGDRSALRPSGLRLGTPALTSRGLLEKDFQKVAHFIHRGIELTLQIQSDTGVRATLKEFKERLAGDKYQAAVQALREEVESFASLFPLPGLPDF
# Experimental: FIG. 11. Signal intensity is dependent on saturation level of PLP-DE with PLP. • (A) PLP loading states of recombinant SHMT1 incubated with increasing equivalents (eq) of PLP were determined by intact protein-MS (n=3) as described previously (Hoegl et al., 2018). • (B) Microarray read out of recombinant SHMT1 bound PL2P probe signals preincubated with PLP equivalents in a physiological range of 0.5-4.0 eq. Mean signal intensities of anti-SHMT1 (n=8) corrected to BSA control and error bars (SD) after fluorescent readout of anti-SHMT1 3. Sample preparation according to workflow 3, as described in the Examples.
# 40 μM apoSHMT1 (25 μL) samples were incubated with increasing amounts of PLP (0 eq., 0.50 eq., 1.00 eq., 4.00 eq., 32.0 eq.) for 1 h at r.t. and subsequently treated with 20 mM NaBH4 (250 mM stock solution in 0.1 M NaOH) for 30 min at r.t. Reduction was quenched by adding cold acetone (4× volume of sample, −20° C.) for at least 1 h. Precipitated proteins were pelletized (10 000 rpm, 15 min, 4° C.) and supernatant was discarded. […] Samples are subsequently incubated and analysed on the microarrays. […]
# The samples were analysed in a single colour approach (without secondary antibody incubation) or dual-colour approach (with secondary antibody incubation) using custom microarrays containing antibodies against OAT, SHMT and PLPBP or a subset of these antibodies. […]
# T1 sequence (O94903 whole entry): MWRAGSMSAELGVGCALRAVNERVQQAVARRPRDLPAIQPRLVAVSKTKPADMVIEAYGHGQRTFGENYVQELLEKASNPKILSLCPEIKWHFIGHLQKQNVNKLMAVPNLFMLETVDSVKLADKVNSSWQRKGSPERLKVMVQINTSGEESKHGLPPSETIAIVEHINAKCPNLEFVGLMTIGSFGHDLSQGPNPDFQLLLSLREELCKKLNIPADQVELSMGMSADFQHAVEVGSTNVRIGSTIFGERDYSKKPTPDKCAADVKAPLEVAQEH
Compound,labeling of recombinant PLPBP by PLP cofactor mimic [1],PL2P probe signal intensity on microarray with increasing PLP saturation of SHMT1 [2],"most suitable PLP cofactor mimic for labeling of recombinant PLPBP ([1]; comparison of PL1P, PL2P, PL13P via SDS-Page)"
"C#Cc1ncc(COP(=O)(O)O)c(C=O)c1O [PL1P, (6-ethynyl-4-formyl-5-hydroxypyridin-3-yl)methyl phosphate]",successfully tested,,
"Cc1ncc(COP(=O)(O)O)c(C=O)c1O [PLP, pyridoxal phosphate]",,decrease in signal intensity; also recorded: decline in signal intensity,
(6-(but-3-yn-1-yl)-4-formyl-5-hydroxypyridin-3-yl)methyl phosphate [PL2P],successfully tested,,most suitable
(4-formyl-6-methyl-5-(prop-2-yn-1-yloxy)pyridin-3-yl)methyl phosphate [PL13P],successfully tested,,
